Source: patent US6355616B1, “Derivative compounds derived from or based on bactericidal/permeability-increasing protein” (priority 1999, dated 2002)
Read-outs that look alike come from different tables or passages of the source. Non-standard residues stand in square brackets, D forms with d. Residues, ends and D or L forms follow the SMILES beside them. Aun = NCCCCCCCCCCC(=O)O; Aoc = NCCCCCCCC(=O)O

Key:
Candida albicans, SLU-1 = experiment: 28-day comparative survival efficacy study in mice systemically infected with Candida albicans; format: in vivo, male DBA/2 mice; details: for improvement in mortality compared with dextrose-treated controls: mice infected iv with C. albicans SLU-1, two doses less than 5 mg/kg, initial experiments (p>0.5)
Description: Derivatized peptide-based constructs are tested for activity upon oral administration (oral activity) in a 28-day comparative survival efficacy study in mice systemically infected with Candida albicans. Specifically, male DBA/2 mice (Charles River Laboratories) six weeks of age are dosed with 7.9×10^4 Candida albicans, SLU-1 in 100 μL intravenously via the tail vein in a single dosage on day zero (0). However, other routes of administration, including intraperitoneal (ip) and subcutaneous (sc) routes may be administered. Amphotericin B will provide complete protection at 0.5 mg/kg qod (100% survival). Mortality data will be subjected to Kaplan-Meier survival analysis. All treatment groups may be considered statistically significant vs. saline at p values <0.05.
Treatment begins immediately thereafter with 400 μL oral gavage of either 0.5% dextrose, or derivative compound in 0.5% dextrose at various dosage levels (e.g., 10 mg/kg or 20 mg/kg) according to a prescribed dosing regimen (e.g. every other day for a total of eight times). Amphotericin B (Fungizone®) is administered intravenously at 0.5 mg/kg as a positive control every other day for a total of eight times. Twice-day monitoring (once daily on weekends and holidays) for mortality is performed. The animals treated with antiflngal derivative compound show improvement in mortality compared with the dextrose-treated controls, preferably statistically significant improvement (p-value of […]).

[1] = system: Candida albicans designated CA-1, Strain SLU-1; format: cell-based
Description: In each broth microdilution assay screening procedure, a colony of Candida albicans designated CA-1, Strain SLU-1 that was received from the laboratories of G. Matuschak and A. Lechner, St. Louis University Hospital, St. Louis, Mo., where the strain was maintained, was inoculated into a tube containing 5 mL Sabouraud Dextrose broth (2% dextrose, 1% neopeptone) and incubated at 37° C. with shaking. The overnight culture was diluted 1:50 into 5 ml of fresh broth and incubated for 3 hours at 37° C. to exponential phase growth. Organisms were pelleted by centrifugation in a Beckman J-6M centrifuge for 5 minutes at 3000 rpm (1500×g) and the pellets were resuspended in 5 mL phosphate buffered saline (PBS) and the optical density (OD) at 570 nm was determined. On the basis of the determination that one OD unit equals 3×10^7 colony forming units/mL (CFU/mL), yeast cells were diluted to 5×10^3 CFU/mL in Sabouraud Dextrose broth (SBD).
Derivatized peptide sequences based on Domain III of BPI to be screened which were originally constituted in Dulbecco's-PBS, were two-fold serially diluted in SDB starting from a concentration of 128 μg/mL. Equal volumes (100 μL) of yeast suspension as prepared above and derivatized peptide solution were added to wells of a 96-well sterile, flat bottom, non-pyrogenic tissue culture microtiter plate (Costar, Cambridge, Mass.) to reach a final volume of 200 μL/well. The plate was incubated on a shaker at 37° C. for 24 hours. All assays were performed in triplicate. Following the incubation period, plates were read in an ELISA plate reader at 595 nm wavelength to determine the minimum inhibitory concentration (MIC), i.e., the lowest concentration required to reduce the optical density at 595 nm to below 0.1 OD.

Candida albicans SLU-1 = experiment: Radial diffusion assay; format: cell-based
Description: In the radial diffusion assay procedures, the CA-1 cultures and derivatized peptide solutions were prepared as in the broth microdilution assay procedure described above, i.e., CA-1 was grown to exponential phase in SDB. Ten (10) mL of molten underlayer agarose comprising 3% Sabouraud Dextrose broth, 1% agarose (Pharmacia, Piscataway, N.J.), 0.02% Tween 20, and 10 mM sodium phosphate at pH 7.4, was added to polystyrene tubes and maintained in a 56° C. water bath until the addition of yeast. Tubes were cooled to approximately 45° C., yeast were added to give a final concentration of 1×10^6 CFU/mL, and the tubes were mixed again by inverting. The contents were poured into leveled, square petri dishes and distributed evenly. […] A series of wells were punched into the hardened agarose using a sterile 3 mm punch attached to a vacuum apparatus to achieve a uniform, 3 mm diameter well.
Derivatized peptide sequences to be assayed were 2-fold serially diluted in 10 mM Dulbecco's PBS (D-PBS) starting from a concentration of approximately […]. Five μL of each dilution were added to each well and the plates were incubated at 37° C. for 3 hours to allow for complete diffusion of the test compounds. An overlayer of 10 mL of molten agarose comprising 6% Sabouraud Dextrose broth, 1% agarose, and 10 mM sodium phosphate, pH 7.4, (at approximately 45° C.) was then added and plates were incubated overnight at 37° C. Following this overnight incubation, a dilute Coomassie solution was poured into the plates and allowed to stain for 24 hours to enhance visualization of the zones.
Clear zones of growth inhibition around each well were measured with calipers. The actual area of growth inhibition (mm^2) was calculated by subtracting the area of the well. Table II below sets out the results of the radial diffusion assays for a series of tested peptide-based constructs in terms of the number of picomoles (pmol) of compound required to establish a 30 mm^2 area of growth inhibition of Candida albicans SLU-1 calculated by PROBIT analysis (e.g., calculated from regression of the linear portion of log-concentration dose-response curve, log pmol/well vs. net area of inhibition).

[2] = designated CA-1, Strain SLU-1, 24 h
[3] = 30 mm^2 area of growth inhibition, calculated by PROBIT analysis

| Molecule | Broth Microdilution (MIC values in μg/mL C. albicans SLU1) [1, 2] | Radial Diffusion (pmol to achieve 30 mm^2 zone C. albicans SLU1) (Candida albicans SLU-1; [3]) | further results |
| --- | --- | --- | --- |
| C[C@@H]1[C@H](O)[C@@H](C)/C=C/C=C/C=C/C=C/C=C/C=C/C=C/[C@H](O[C@@H]2O[C@H](C)[C@@H](O)[C@H](N)[C@@H]2O)C[C@@H]2O[C@](O)(C[C@@H](O)C[C@@H](O)[C@H](O)CC[C@@H](O)C[C@@H](O)CC(=O)O[C@H]1C)C[C@H](O)[C@H]2C(=O)O [Amphotericin B, reference compound] |  |  | survival (Candida albicans, SLU-1; 0.5 mg/kg qod, positive control, 'will provide complete protection'): 100% |
| CC[C@@H](C)[C@@H](NC(=O)[C@@H](CC(C)C)NC(=O)[C@@H](Cc1c[nH]c2ccccc12)NC(=O)[C@@H](CCCCN)NC(=O)CCCCCCCN)C(=O)N[C@H](CCC(N)=O)C(=O)N[C@H](CC(C)C)C(=O)N[C@H](Cc1ccccc1)C(=O)N[C@H](Cc1c[nH]cn1)C(=O)N[C@H](CCCCN)C(=O)N[C@H](CCCCN)C(N)=O [XMP.416] (H-[Aoc][dK][dW][dL][dI][dQ][dL][dF][dH][dK][dK]-NH2) | 1 µg/mL | 410 pmol |  |
| CC[C@@H](C)[C@@H](NC(=O)[C@@H](CC(C)C)NC(=O)[C@@H](Cc1c[nH]c2ccccc12)NC(=O)[C@@H](CCCCN)NC(=O)CCCCCCCCCCN)C(=O)N[C@H](CCC(N)=O)C(=O)N[C@H](CC(C)C)C(=O)N[C@H](Cc1ccccc1)C(=O)N[C@H](Cc1c[nH]cn1)C(=O)N[C@H](CCCCN)C(=O)N[C@H](CCCCN)C(N)=O [XMP.496] (H-[Aun][dK][dW][dL][dI][dQ][dL][dF][dH][dK][dK]-NH2) | 1 µg/mL | 434 pmol | improvement in mortality compared with dextrose-treated controls (Candida albicans, SLU-1): did not exhibit statistically significant improvement |
| CC[C@@H](C)[C@@H](NC(=O)[C@@H](CC(C)C)NC(=O)[C@@H](Cc1c[nH]c2ccccc12)NC(=O)[C@@H](CCCCN)NC(=O)c1c[nH]cn1)C(=O)N[C@H](CCC(N)=O)C(=O)N[C@H](CC(C)C)C(=O)N[C@H](Cc1ccccc1)C(=O)N[C@H](Cc1c[nH]cn1)C(=O)N[C@H](CCCCN)C(=O)N[C@H](CCCCN)C(N)=O [XMP.500] |  |  | improvement in mortality compared with dextrose-treated controls (Candida albicans, SLU-1): did not exhibit statistically significant improvement |
| CC[C@@H](C)[C@@H](NC(=O)[C@@H](CC(C)C)NC(=O)[C@@H](Cc1c[nH]c2ccccc12)NC(=O)[C@@H](CCCCN)NC(C)=O)C(=O)N[C@H](CCC(N)=O)C(=O)N[C@H](CC(C)C)C(=O)N[C@H](Cc1ccccc1)C(=O)N[C@H](Cc1c[nH]cn1)C(=O)N[C@H](CCCCN)C(=O)N[C@H](CCCCNC(=O)CCCC[C@@H]1SC[C@@H]2NC(=O)N[C@@H]21)C(N)=O [XMP.518] | 8 µg/mL | 484 pmol |  |
| CC[C@@H](C)[C@@H](NC(=O)[C@@H](CC(C)C)NC(=O)[C@@H](Cc1c[nH]c2ccccc12)NC(=O)[C@@H](CCCCN)NC(C)=O)C(=O)N[C@H](CCC(N)=O)C(=O)N[C@H](CC(C)C)C(=O)N[C@H](Cc1ccccc1)C(=O)N[C@H](Cc1c[nH]cn1)C(=O)N[C@H](CCCCNC(=O)CCCC[C@@H]1SC[C@@H]2NC(=O)N[C@@H]21)C(=O)N[C@H](CCCCN)C(N)=O [XMP.521] | 16 µg/mL | 959 pmol |  |
| CC[C@@H](C)[C@@H](NC(=O)[C@@H](CC(C)C)NC(=O)[C@@H](Cc1c[nH]c2ccccc12)NC(=O)[C@@H](CCCCN)NC(=O)c1cc2ccccc2o1)C(=O)N[C@H](CCC(N)=O)C(=O)N[C@H](CC(C)C)C(=O)N[C@H](Cc1ccccc1)C(=O)N[C@H](Cc1c[nH]cn1)C(=O)N[C@H](CCCCN)C(=O)N[C@H](CCCCN)C(N)=O [XMP.536] | 4 µg/mL | >3,371 pmol |  |
| CC[C@@H](C)[C@@H](NC(=O)[C@@H](CC(C)C)NC(=O)[C@@H](Cc1c[nH]c2ccccc12)NC(=O)[C@@H](CCCCN)NC(=O)c1cc2ccccc2[nH]1)C(=O)N[C@H](CCC(N)=O)C(=O)N[C@H](CC(C)C)C(=O)N[C@H](Cc1ccccc1)C(=O)N[C@H](Cc1c[nH]cn1)C(=O)N[C@H](CCCCN)C(=O)N[C@H](CCCCN)C(N)=O [XMP.545] | 8 µg/mL | 1,635 pmol |  |
| CC[C@@H](C)[C@@H](NC(=O)[C@@H](CC(C)C)NC(=O)[C@@H](Cc1c[nH]c2ccccc12)NC(=O)[C@@H](CCCCN)NC(=O)c1nccc2ccccc12)C(=O)N[C@H](CCC(N)=O)C(=O)N[C@H](CC(C)C)C(=O)N[C@H](Cc1ccccc1)C(=O)N[C@H](Cc1c[nH]cn1)C(=O)N[C@H](CCCCN)C(=O)N[C@H](CCCCN)C(N)=O [XMP.546] | >64 µg/mL | >3,371 pmol |  |
| CC[C@@H](C)[C@@H](NC(=O)[C@@H](CC(C)C)NC(=O)[C@@H](Cc1c[nH]c2ccccc12)NC(=O)[C@@H](CCCCN)NC(=O)c1ccc2ccccc2n1)C(=O)N[C@H](CCC(N)=O)C(=O)N[C@H](CC(C)C)C(=O)N[C@H](Cc1ccccc1)C(=O)N[C@H](Cc1c[nH]cn1)C(=O)N[C@H](CCCCN)C(=O)N[C@H](CCCCN)C(N)=O [XMP.596] | 2 µg/mL | 3,140 pmol |  |
| CC[C@@H](C)[C@@H](NC(=O)[C@@H](CC(C)C)NC(=O)[C@@H](Cc1c[nH]c2ccccc12)NC(=O)[C@@H](CCCCN)NC(=O)c1cccc(Cl)c1[N+](=O)[O-])C(=O)N[C@H](CCC(N)=O)C(=O)N[C@H](CC(C)C)C(=O)N[C@H](Cc1ccccc1)C(=O)N[C@H](Cc1c[nH]cn1)C(=O)N[C@H](CCCCN)C(=O)N[C@H](CCCCN)C(N)=O [XMP.618] | 4 µg/mL | 2,146 pmol |  |
| XMP.503: R1 = pyridine carbonyl, R2 = R3 = H (KWLIQLFHKK; XMP.503; Position 1 is derivatized at the alpha-amino with: pyridine carbonyl; Positions 1-10 are D-Amino Acids; AMIDATION=The C-terminus is Amidated) |  |  | improvement in mortality compared with dextrose-treated controls (Candida albicans, SLU-1): did not exhibit statistically significant improvement |
| XMP.535: peptide-based construct; derivatization not given in Table I (KWLIQLFHKK; XMP.535; Position 1 is derivatized at the alpha-amino with: anthraquinone carbonyl; Positions 1-10 are D-Amino Acids; AMIDATION=The C-terminus is Amidated) |  |  | Broth Microdilution (MIC values in μg/mL C. albicans SLU1) ([1]; C. albicans SLU1): b (no detectable activity up to 5 μg/well); Radial Diffusion (pmol to achieve 30 mm^2 zone C. albicans SLU1) (Candida albicans SLU-1): b (no detectable activity up to 5 μg/well) |
